This test addresses Beta-lactamase (Pseudomonas aeruginosa) (UniProt Q932Y6). Briefly: VIM-2 metallo-beta-lactamase inhibition constant, late-stage follow-up, mechanism study, biochemical, probe results (AID 2128). As to conditions: purified enzyme, nitrocefin hydrolysis absorbance/fluorescence, enzyme assay, VIM-2 inhibition constant, kinetics.

In general, Ki refers to a measure of affinity in units of concentration, obtained from inhibition or displacement. High values mean lower affinity, low ones higher affinity. The compound `O=c1[nH]c2c(s1)C(c1cccnc1)C1C3CCC(C3)C1S2` (stereo unspecified) showed a Ki of 0.148 µM.

(Values after PubChem BioAssay AID2128 (The Scripps Research Institute Molecular Screening Center, 2009).)
